Data published in patent US5173496A, “Therapeutic preparations containing indazole derivatives” (ICI Pharma, priority 1987, dated 1992).

Experiments:
[1] = target: T1, 5-LO isolated from guinea pig neutrophils (Cavia porcellus, UniProt A0A286X958); assay: Test (a): in vitro spectrophotometric enzyme assay, cell free system, 5-LO isolated from guinea pig neutrophils; assay type: biochemical
T1 construct: 5-LO isolated from guinea pig neutrophils; from tissue; host or cells: guinea pig neutrophils
T1 sequence (A0A286X958 1-674): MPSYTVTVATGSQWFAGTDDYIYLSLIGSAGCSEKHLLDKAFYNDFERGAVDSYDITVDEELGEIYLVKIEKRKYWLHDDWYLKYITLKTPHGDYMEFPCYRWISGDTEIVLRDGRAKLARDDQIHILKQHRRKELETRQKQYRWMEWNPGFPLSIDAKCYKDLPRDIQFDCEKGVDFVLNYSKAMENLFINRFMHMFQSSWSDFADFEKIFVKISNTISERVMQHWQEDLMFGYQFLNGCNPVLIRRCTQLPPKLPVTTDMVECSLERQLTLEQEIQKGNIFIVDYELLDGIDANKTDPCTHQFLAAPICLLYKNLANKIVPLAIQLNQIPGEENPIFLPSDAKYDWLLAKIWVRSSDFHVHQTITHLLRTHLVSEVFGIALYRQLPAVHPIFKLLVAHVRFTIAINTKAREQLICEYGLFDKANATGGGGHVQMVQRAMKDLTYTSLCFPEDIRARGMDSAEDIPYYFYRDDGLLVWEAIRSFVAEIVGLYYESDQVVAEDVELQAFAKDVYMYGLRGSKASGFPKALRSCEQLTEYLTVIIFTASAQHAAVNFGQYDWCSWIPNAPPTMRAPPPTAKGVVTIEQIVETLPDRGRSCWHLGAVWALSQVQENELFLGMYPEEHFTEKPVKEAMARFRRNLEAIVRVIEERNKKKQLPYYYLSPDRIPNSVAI
Description: a) An in vitro spectrophotometric enzyme assay system, which assesses the inhibitory properties of a test compound in a cell free system using 5-LO isolated from guinea pig neutrophils and as described by D. Aharony and R. L. Stein (J. Biol. Chem., 1986, 261(25), 11512-11519). This test provides a measure of the intrinsic inhibitory properties against soluble 5-LO in an extracellular environment.

5-LO [2] = target: T2, 5-LO (Rattus norvegicus, UniProt P12527); assay: Test (b): in vitro heparinised rat blood, A23187 challenge, LTB4 radioimmunoassay (5-LO); assay type: cell-based
T2 construct: challenge with A23187 and radioimmunoassay of LTB4 and PGE2; endogenous in cells; host or cells: blood collected after oral dosing, heparinised
T2 sequence (P12527 1-673): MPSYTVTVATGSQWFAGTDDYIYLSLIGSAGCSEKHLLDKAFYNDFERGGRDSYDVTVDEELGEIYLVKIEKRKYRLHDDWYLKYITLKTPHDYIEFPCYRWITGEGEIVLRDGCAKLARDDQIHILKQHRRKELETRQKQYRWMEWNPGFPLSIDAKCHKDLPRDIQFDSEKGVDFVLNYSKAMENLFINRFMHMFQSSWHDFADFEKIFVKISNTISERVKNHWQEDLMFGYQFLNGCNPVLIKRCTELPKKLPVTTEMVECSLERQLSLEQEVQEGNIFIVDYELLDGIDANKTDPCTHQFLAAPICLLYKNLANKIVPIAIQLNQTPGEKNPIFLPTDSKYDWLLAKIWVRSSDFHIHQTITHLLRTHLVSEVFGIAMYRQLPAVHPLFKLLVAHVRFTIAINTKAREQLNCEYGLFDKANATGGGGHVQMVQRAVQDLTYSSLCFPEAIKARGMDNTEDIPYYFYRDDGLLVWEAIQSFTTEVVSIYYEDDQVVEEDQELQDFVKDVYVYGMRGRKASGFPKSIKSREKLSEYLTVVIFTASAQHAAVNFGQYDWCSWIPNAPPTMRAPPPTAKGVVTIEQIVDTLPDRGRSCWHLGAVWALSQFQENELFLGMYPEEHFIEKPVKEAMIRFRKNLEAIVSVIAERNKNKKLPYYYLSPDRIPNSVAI
Experimental: (§1) b) An in vitro assay system involving incubating a test compound with heparinised rat blood, prior to challenge with the calcium ionophore A23187 and then indirectly measuring the inhibitory effects on 5-LO by assaying the amount of LTB4 using the specific radioimmunoassay described by Carey and Forder (F. Carey and R. A. Forder, Brit. J. Pharmacol. 1985, 84, 34P) which involves the use of a protein-LTB4 conjugate produced using the procedure of Young et alia (Prostaglandins, 1983, 26(4), 605-613). The effects of a test compound on the enzyme cyclooxygenase (which is involved in the alternative metabolic pathway for arachidonic acid and gives rise to prostaglandins, thromboxanes and related metabolites) may be measured at the same time using the specific radioimmunoassay for prostaglandin E2 (PGE2) described by Carey and Forder (see above). This test provides an indication of the effects of a test compound against 5-LO and also cyclooxygenase in the presence of blood cells and proteins. It permits the selectivity of the inhibitory effect on 5-LO or cyclooxygenase to be assessed.

cyclooxygenase [3] = target: T3, cyclooxygenase (Rattus norvegicus, UniProt Q63921); assay: Test (b): in vitro heparinised rat blood, A23187 challenge, PGE2 radioimmunoassay (cyclooxygenase); assay type: cell-based
T3 construct: incubating a test compound with heparinised rat blood; endogenous in cells; host or cells: heparinised rat blood (platelets and leukocytes)
T3 sequence (Q63921 27-602): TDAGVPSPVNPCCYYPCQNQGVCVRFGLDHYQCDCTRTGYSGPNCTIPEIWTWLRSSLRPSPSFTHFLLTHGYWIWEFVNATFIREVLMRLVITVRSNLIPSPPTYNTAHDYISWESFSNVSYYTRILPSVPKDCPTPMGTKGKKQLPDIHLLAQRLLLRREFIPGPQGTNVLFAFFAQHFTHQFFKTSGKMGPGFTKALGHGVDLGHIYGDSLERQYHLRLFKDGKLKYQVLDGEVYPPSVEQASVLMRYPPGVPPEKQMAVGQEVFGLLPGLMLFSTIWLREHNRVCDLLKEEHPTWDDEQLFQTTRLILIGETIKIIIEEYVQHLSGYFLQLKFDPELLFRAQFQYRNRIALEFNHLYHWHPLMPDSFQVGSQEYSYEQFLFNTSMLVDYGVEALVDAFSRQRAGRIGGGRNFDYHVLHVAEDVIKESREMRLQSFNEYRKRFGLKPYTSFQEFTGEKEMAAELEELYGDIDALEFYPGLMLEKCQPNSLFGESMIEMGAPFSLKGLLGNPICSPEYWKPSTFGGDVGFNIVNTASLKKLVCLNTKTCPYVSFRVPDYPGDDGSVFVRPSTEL
Experimental: as §1

5-LO [4] = target: T2, 5-LO; assay: Test (c): ex vivo assay, oral dosing, blood A23187 challenge, LTB4 radioimmunoassay; assay type: in vivo
Experimental: as §1
(§2) c) An ex vivo assay system, which is a variation of test (b) above, involving administration of a test compound (usually orally as a suspension in carboxymethylcellulose)blood collection, heparinisation, challenge with A23187 and radioimmunoassay of LTB4 and PGE2. […]

cyclooxygenase [5] = target: T3, cyclooxygenase; assay: Test (c): ex vivo assay, oral dosing, blood A23187 challenge, PGE2 radioimmunoassay; assay type: in vivo
Experimental: as §1, §2

[6] = test system: carrageenin induced oedema in rat paws; assay: carrageenin induced oedema in rat paws; assay type: in vivo; conditions: dosed orally at 100 mg/kg
Description: A specific known indazolone of formula I which is of particular interest as an inhibitor of 5-LO is, for example, 1,2-dihydro-2-benzylindazol-3-one.

[7] = test system: carrageenin induced oedema in rat paws; conditions: J. Heterocyclic Chemistry, 1970, 7, 815-820; cited from earlier work

| IC50 [1] [nM] | IC50 (5-LO [2]) [nM] | IC50 (cyclooxygenase [3]) [µM] | ED50 (5-LO [4]) [mg/kg] | ED50 (cyclooxygenase [5]) [mg/kg] | SMILES | significant effects in carrageenin induced oedema in rat paws [6] | anti-inflammatory properties in carrageenin induced oedema in rat paws [7] |
| --- | --- | --- | --- | --- | --- | --- | --- |
| 1700 | 800 | 100 | 30 |  | O=c1c2ccccc2[nH]n1Cc1cccc2ccccc12 [Example 1, 1,2-dihydro-2-(1-naphthylmethyl)-3H-indazol-3-one] |  |  |
|  | < 5000 | > 100 | < 10 | > 100 | O=c1c2ccccc2[nH]n1Cc1cccnc1 [Example 24] |  |  |
|  |  |  |  |  | O=c1c2ccccc2[nH]n1Cc1ccccc1 [1,2-dihydro-2-benzylindazol-3-one] | unable to detect any significant effects | weak anti-inflammatory properties |
